Experimental data from patent publication US11066414B2, “Cot modulators and methods of use thereof” (Gilead Sciences, Inc., priority 2015, dated 2021).
Like-named read-outs stand apart in the source and are kept apart here.

What was measured:
TNFα = test: Cot Monocyte TNFα Cell Based Assay
Human Cot = Human Cot (Homo sapiens (Human), UniProt P41279); test: High Throughput Cot Biochemical Assay
[1] = Homo sapiens, Monocyte, read-out: EC50 TNF, LPS-stimulated human monocytes, TNFα
[2] = IC50 HTRF, Cot HTRF (TR-FRET) biochemical assay
[3] = read-out: EC50 TNF, LPS-stimulated human monocytes, TNFα
[4] = read-out: IC50 HTRF, Cot HTRF (TR-FRET) biochemical assay

Sequence of Human Cot (P41279 30-397): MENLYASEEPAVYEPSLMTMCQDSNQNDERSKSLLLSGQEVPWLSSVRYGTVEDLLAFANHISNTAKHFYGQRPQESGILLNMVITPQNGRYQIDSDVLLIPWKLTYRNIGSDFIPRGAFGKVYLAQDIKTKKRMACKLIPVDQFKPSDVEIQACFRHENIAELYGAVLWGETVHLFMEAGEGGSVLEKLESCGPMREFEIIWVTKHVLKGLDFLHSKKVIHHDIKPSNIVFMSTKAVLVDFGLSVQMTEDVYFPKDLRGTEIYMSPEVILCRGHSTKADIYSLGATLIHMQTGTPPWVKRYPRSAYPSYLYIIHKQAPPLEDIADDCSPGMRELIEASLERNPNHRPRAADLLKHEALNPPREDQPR

EC50 (TNFα; [1]) [nM] | IC50 (Human Cot; [2]) [nM] | Structure (SMILES) | other results
130 | 11 | Cc1nc([C@H](Nc2cc(Cl)c3ncc(C#N)c(Nc4ccc(F)c(Cl)c4)c3c2)c2cn(C3CCN(C(C)(C)C)CC3)nn2)c(C)o1 [Example 262, (S)-6-(((1-(1-(tert-butyl)piperidin-4-yl)-1H-1,2,3-triazol-4-yl)(2,5-dimethyloxazol-4-yl)methyl)amino)-8-chloro-4-((3-chloro-4-fluorophenyl)amino)quinoline-3-carbonitrile] | –
70 | 2 | CC(C)(C)N1CCC(n2cc([C@@H](Nc3cc(Cl)c4ncc(C#N)c(Nc5ccc(F)c(Cl)c5)c4c3)C3=CCOCC3)nn2)CC1 [Example 264, (S)-6-(((1-(1-(tert-butyl)piperidin-4-yl)-1H-1,2,3-triazol-4-yl)(3,6-dihydro-2H-pyran-4-yl)methyl)amino)-8-chloro-4-((3-chloro-4-fluorophenyl)-amino)quinoline-3-carbonitrile] | –
5120 | 30 | Cn1cnc([C@H](Nc2cc(Cl)c3ncc(C#N)c(Nc4ccc(F)c(Cl)c4)c3c2)c2cn(C3CCN(C(C)(C)C)CC3)nn2)c1 [Example 267, (S)-6-(((1-(1-(tert-butyl)piperidin-4-yl)-1H-1,2,3-triazol-4-yl)(1-methyl-1H-imidazol-4-yl)methyl)amino)-8-chloro-4-((3-chloro-4-fluorophenyl)-amino)quinoline-3-carbonitrile] | –
826 | 9 | Cc1ccc([C@H](Nc2cc(Cl)c3ncc(C#N)c(Nc4ccc(F)c(Cl)c4)c3c2)c2c[nH]nn2)cn1 [Example 271, (S)-8-chloro-4-((3-chloro-4-fluorophenyl)amino)-6-(((6-methylpyridin-3-yl)(1H-1,2,3-triazol-4-yl)methyl)amino)quinoline-3-carbonitrile] | –
1560 | 51 | Cc1ccc([C@H](Nc2cc(Cl)c3ncc(C#N)c(Nc4ccc(F)c(Cl)c4)c3c2)c2cn(COC(=O)C(C)(C)C)nn2)cn1 [Example 273, (S)-(4-(((8-chloro-4-((3-chloro-4-fluorophenyl)amino)-3-cyanoquinolin-6-yl)amino)(6-methylpyridin-3-yl)methyl)-1H-1,2,3-triazol-1-yl)methyl pivalate] | –
2330 | 7 | N#Cc1cnc2c(Cl)cc(N[C@H](c3c[nH]nn3)c3csc4c3CCNC4)cc2c1Nc1ccc(F)c(Cl)c1 [Example 275, (S)-8-chloro-4-((3-chloro-4-fluorophenyl)amino)-6-(((4,5,6,7-tetrahydrothieno[2,3-c]pyridin-3-yl)(1H-1,2,3-triazol-4-yl)methyl)-amino)quinoline-3-carbonitrile] | –
789 | 6 | N#Cc1cnc2c(Cl)cc(N[C@@H](c3cscn3)c3c[nH]nn3)cc2c1Nc1ccc(F)c(Cl)c1 [Example 276, (S)-8-chloro-4-((3-chloro-4-fluorophenyl)amino)-6-((thiazol-4-yl(1H-1,2,3-triazol-4-yl)methyl)amino)quinoline-3-carbonitrile] | –
– | – | N#Cc1cnc2c(Cl)cc(N[C@H](c3c[nH]nn3)c3cncs3)cc2c1Nc1ccc(F)c(Cl)c1 [Example 277, (R)-B-chloro-4-((3-chloro-4-fluorophenyl)amino)-6-((thiazol-5-yl(1H-1,2,3-triazol-4-yl)methyl)amino)quinoline-3-carbonitrile] | EC50 (TNFα; [3]): 923 nM; IC50 (Human Cot; [4]): 7 nM
– | – | CCN1CCc2c([C@H](Nc3cc(Cl)c4ncc(C#N)c(Nc5ccc(F)c(Cl)c5)c4c3)c3cn(C4COC4)nn3)csc2C1 [Example 278, (S)-8-chloro-4-((3-chloro-4-fluorophenyl)amino)-6-(((6-ethyl-4,5,6,7-tetrahydro-thieno[2,3-c]pyridin-3-yl)(1-(oxetan-3-yl)-1H-1,2,3-triazol-4-yl)methyl)amino)quinoline-3-carbonitrile] | EC50 (TNFα; Homo sapiens, Monocyte, read-out: EC50 TNF): 269 nM; IC50 (Human Cot): 3 nM
457 | 3 | N#Cc1cnc2c(Cl)cc(N[C@H](c3cn(C4COC4)nn3)c3csc4c3CCNC4)cc2c1Nc1ccc(F)c(Cl)c1 [Example 279, (S)-8-chloro-4-((3-chloro-4-fluorophenyl)amino)-6-(((1-(oxetan-3-yl)-1H-1,2,3-triazol-4-yl)(4,5,6,7-tetrahydrothieno[2,3-c]pyridin-3-yl)methyl)amino)quinoline-3-carbonitrile] | –
– | – | Cc1ncccc1[C@H](Nc1cc(Cl)c2ncc(C#N)c(Nc3ccc(F)c(Cl)c3)c2c1)c1cn(C2CCN(C(C)(C)C)CC2)nn1 [Example 283] | EC50 (TNFα; [3]): 50 nM; IC50 (Human Cot; [4]): 3 nM
219 | 8 | CC(C)(C)N1CCC(n2cc([C@@H](Nc3cc(Cl)c4ncc(C#N)c(Nc5ccc(F)c(F)c5)c4c3)c3cccnc3)nn2)CC1 [Example 285, (S)-6-(((1-(1-(tert-butyl)piperidin-4-yl)-1H-1,2,3-triazol-4-yl)(pyridin-3-yl)methyl)amino)-8-chloro-4-((3,4-difluorophenyl)amino)quinoline-3-carbonitrile] | –
– | – | CC(C)(C)N1CCC(n2cc([C@@H](Nc3cc(Cl)c4ncc(C#N)c(Nc5cccc(Cl)c5F)c4c3)c3cccnc3)nn2)CC1 [Example 286] | EC50 (TNFα; [3]): 121 nM; IC50 (Human Cot; [4]): 4 nM
1060 | 26 | CC(C)(C)N1CCC(n2cc([C@@H](Nc3cc(Cl)c4ncc(C#N)c(NC5CCCCCC5)c4c3)c3cccnc3)nn2)CC1 [Example 288, (S)-6-(((1-(1-(tert-butyl)piperidin-4-yl)-1H-1,2,3-triazol-4-yl)(pyridin-3-yl)methyl)amino)-8-chloro-4-(cycloheptylamino)quinoline-3-carbonitrile] | –
166 | 9 | Cc1nc(Cl)ccc1[C@H](Nc1cc(Cl)c2ncc(C#N)c(Nc3ccc(F)c(Cl)c3)c2c1)c1cn(C(C)C)nn1 [Example 294, (S)-8-chloro-6-(((6-chloro-2-methylpyridin-3-yl)(1-isopropyl-1H-1,2,3-triazol-4-yl)methyl)amino)-4-((3-chloro-4-fluorophenyl)amino)quinoline-3-carbonitrile] | –
200 | 9 | CC(C)n1cc([C@@H](Nc2cc(Cl)c3ncc(C#N)c(Nc4ccc(F)c(Cl)c4)c3c2)c2cccnc2Cl)nn1 [Example 297, (S)-8-chloro-4-((3-chloro-4-fluoro-phenyl)amino)-6-(((2-chloropyridin-3-yl)(1-isopropyl-1H-1,2,3-triazol-4-yl)methyl)amino)quinoline-3-carbonitrile] | –
1500 | 39 | CC(C)n1cc([C@@H](Nc2cc(Cl)c3ncc(C#N)c(Nc4ccc(F)c(Cl)c4)c3c2)c2cnco2)nn1 [Example 298, (R)-8-chloro-4-((3-chloro-4-fluoro-phenyl)amino)-6-(((1-isopropyl-1H-1,2,3-triazol-4-yl)(oxazol-5-yl)methyl)-amino)quinoline-3-carbonitrile] | –
739 | 18 | CC(C)(C)N1CCC(n2cc([C@@H](Nc3cc(Cl)c4ncc(C#N)c(Nc5ccc(F)c(Cl)c5)c4c3)c3cnco3)nn2)CC1 [Example 299, (R)-6-(((1-(1-(tert-butyl)piperidin-4-yl)-1H-1,2,3-triazol-4-yl)(oxazol-5-yl)methyl)amino)-8-chloro-4-((3-chloro-4-fluorophenyl)amino)quinoline-3-carbonitrile] | –
– | – | CC(C)(C)N1CCC(n2cc([C@@H](Nc3cc(Cl)c4ncc(C#N)c(Nc5ccc(F)c(Cl)c5)c4c3)c3csc(N4CCOCC4)n3)nn2)CC1 [Example 300] | EC50 (TNFα; [3]): 165 nM; IC50 (Human Cot; [4]): 7 nM
472 | 10 | N#Cc1cnc2c(Cl)cc(N[C@H](c3cn(C4COC4)nn3)c3csc(N4CCOCC4)n3)cc2c1Nc1ccc(F)c(Cl)c1 [Example 302, (S)-8-chloro-4-((3-chloro-4-fluoro-phenyl)amino)-6-(((2-morpholinothiazol-4-yl)(1-(oxetan-3-yl)-1H-1,2,3-triazol-4-yl)methyl)amino)quinoline-3-carbonitrile] | –
234 | 6 | CC(C)n1cc([C@@H](Nc2cc(Cl)c3ncc(C#N)c(Nc4ccc(F)c(Cl)c4)c3c2)c2ccnn2C)nn1 [Example 304, (S)-8-chloro-4-((3-chloro-4-fluorophenyl)amino)-6-(((1-isopropyl-1H-1,2,3-triazol-4-yl)(1-methyl-1H-pyrazol-5-yl)methyl)amino)quinoline-3-carbonitrile] | –
84 | 3 | Cn1nccc1[C@H](Nc1cc(Cl)c2ncc(C#N)c(Nc3ccc(F)c(Cl)c3)c2c1)c1cn(C2CCN(C(C)(C)C)CC2)nn1 [Example 305, (S)-6-(((1-(1-(tert-butyl)piperidin-4-yl)-1H-1,2,3-triazol-4-yl)(1-methyl-1H-pyrazol-5-yl)methyl)amino)-8-chloro-4-((3-chloro-4-fluorophenyl)amino)quinoline-3-carbonitrile] | –
202 | 6 | Cc1ncsc1[C@H](Nc1cc(Cl)c2ncc(C#N)c(Nc3ccc(F)c(Cl)c3)c2c1)c1cn(C(C)C)nn1 [Example 306, (R)-8-chloro-4-((3-chloro-4-fluorophenyl)amino)-6-(((1-isopropyl-1H-1,2,3-triazol-4-yl)(4-methylthiazol-5-yl)methyl)amino)quinoline-3-carbonitrile] | –
60 | 4 | Cc1ncsc1[C@H](Nc1cc(Cl)c2ncc(C#N)c(Nc3ccc(F)c(Cl)c3)c2c1)c1cn(C2CCN(C(C)(C)C)CC2)nn1 [Example 307, (R)-6-(((1-(1-(tert-butyl)piperidin-4-yl)-1H-1,2,3-triazol-4-yl)(4-methylthiazol-5-yl)methyl)amino)-8-chloro-4-((3-chloro-4-fluorophenyl)amino)quinoline-3-carbonitrile] | –
286 | 4 | N#Cc1cnc2c(Cl)cc(N[C@@H](c3cccnc3)c3c[nH]nn3)cc2c1Nc1ccc(F)c(Cl)c1 [Example 308, (S)-8-chloro-4-((3-chloro-4-fluorophenyl)amino)-6-((pyridin-3-yl(1H-1,2,3-triazol-4-yl)methyl)amino)-quinoline-3-carbonitrile] | –
